Measured values from PMC10060569 (Frontiers in Pharmacology, 2023).
Several values for one entry are separate records, joined by “and”; a condition that tells them apart may be missing. Equal values may be shown once.

Molecular target: T1, S15V-hP2X3R (Homo sapiens, UniProt P56373, S15V)
T1 construct: expressed in transfected cells; host or cells: Xenopus laevis oocytes (cRNA injection)
T1 sequence (P56373 1-397 S15V): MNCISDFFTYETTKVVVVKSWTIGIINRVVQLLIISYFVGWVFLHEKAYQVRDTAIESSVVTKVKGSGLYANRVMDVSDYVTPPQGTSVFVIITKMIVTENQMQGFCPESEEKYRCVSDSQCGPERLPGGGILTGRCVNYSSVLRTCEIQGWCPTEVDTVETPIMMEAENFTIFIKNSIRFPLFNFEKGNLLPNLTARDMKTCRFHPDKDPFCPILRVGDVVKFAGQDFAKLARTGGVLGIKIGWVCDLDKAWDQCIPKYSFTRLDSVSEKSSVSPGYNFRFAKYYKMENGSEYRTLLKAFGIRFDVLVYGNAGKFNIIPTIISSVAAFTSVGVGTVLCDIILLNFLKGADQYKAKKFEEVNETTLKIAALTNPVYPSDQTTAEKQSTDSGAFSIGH
Assay: TEVC of ATP-induced currents, S15V-hP2X3R expressed in X. laevis oocytes (peak current protocol)
Assay type: cell-based
Details: for IC50 / inhibition at 1000 µM: 1 µM ATP; for IC50: 30-s preincubation of antagonist, X. laevis oocytes, −60 mV, geometric mean; for inhibition at 1000 µM: 1 mM antagonist, mean ± SEM, read-out: Max. inhibition at 1 mM; for reversibility of the inhibitory effect by washout: subsequent control current after washout
Excerpt: Oocyte expression plasmids encoding the wild-type (wt) and N-terminally His-tagged (His-) fusion constructs of the hP2X2R, hP2X3R, hP2X4R, and hP2X7R, and the mutant His-^20RMVL^23KVIV^23S^26N-hP2X1R, S^15V-rP2X3R, and His-S^15V-hP2X3R were the same as used in previous research ([Hausmann et al., 2006]; [Wolf et al., 2011]; [Hausmann et al., 2014]; [Obrecht et al., 2019]). In most cases, the N-terminal His-tagged variants of P2XRs were used here and in the previous studies to allow biochemical analyses on affinity-purified proteins using the same constructs. Although this was not required for the present study, it allows for better comparability with our previous studies. Capped cRNAs of different P2XRs were already available in the research group or were synthesized as previously described ([Schmalzing et al., 1991]; [Stolz et al., 2015]). cRNA was injected into collagenase-defolliculated X. laevis oocytes in aliquots of 41 nl or 23 nl (see Supplementary Table S1 for the amount of cRNA used for expression of the indicated P2XR) using a Nanoliter 2000 injector (World Precision Instruments, Sarasota, United States of America) as described previously ([Hausmann et al., 2014]; [Stolz et al., 2015]; [Obrecht et al., 2019]). To express the heteromeric hP2X2/3 receptor, cRNAs encoding His-hP2X2R and wt-hP2X3R were coinjected at a ratio (w/w) of 1:6. Oocytes were stored at 19°C in an oocyte ringer solution (ORi^+) containing 90 mM NaCl, 1 mM KCl, 1 mM CaCl2, 1 mM MgCl2, and 10 mM HEPES (Carl Roth, Karlsruhe, Germany) adjusted to pH 7.4 with NaOH and supplemented with 50 μg/ml gentamicin (AppliChem, Darmstadt, Germany). The procedures followed for the maintenance of and the surgical treatment for X. laevis adults were approved by the governmental animal care and use committee of the State Agency for Nature, Environment, and Consumer Protection (LANUV, Recklinghausen, Germany; reference no. 81-02.04.2019. A355), in compliance with Directive 2010/63/EU of the European Parliament and of the Council on the protection of animals used for scientific purpose.
Ion currents mediated by P2X receptors were evoked by the indicated concentration of ATP or α,β-meATP and were recorded 1 or 2 days after cRNA injection at ambient temperature at a holding potential of −60 mV by two-electrode voltage clamp (TEVC) as previously described ([Hausmann et al., 2006]). Calcium-free ORi^− solution (90 mM NaCl, 1 mM KCl, 2 mM MgCl2, 10 mM HEPES, pH 7.4) was used to avoid bias due to calcium-activated chloride channels (CaCC) endogenously expressed in X. laevis oocytes ([Miledi, 1982]; [Methfessel et al., 1986]). For recordings of wt-hP2X7R, the composition of the ORi^− solution was modified according to protocols described previously and contained 100 mM NaCl, 2.5 mM KCl, 1 mM MgCl2, 5 mM HEPES, pH 7.4 ([Klapperstück et al., 2000]). The oocytes were continuously superfused with ORi^− by gravity flow (5–10 ml/min). The agonists ATP or α,β-meATP and the investigated NSAIDs were diluted in ORi^− on the day of the recording. […] A peak current protocol (Supplementary Figure S1) was used to analyze fast- and intermediate desensitizing P2XR subtypes (P2X1R, P2X3R, and S^15V-P2X3R), and a steady-state protocol (Supplementary Figure S2) was used for slowly or partially desensitizing P2X subtypes (P2X2R, P2X2/3R, and P2X4R). For recordings of P2X7R, a modified steady-state protocol was used ([Hausmann et al., 2006]). The application of different bath solutions was controlled by computer-operated magnetic valves controlled by the CellWorks E 5.5.1 software (npi electronic, Tamm, Germany).
Antagonist concentration–response data and IC50 values were calculated by normalizing ATP-induced responses to the control responses (recorded in the presence and absence of the antagonist, respectively). […]

SMILES	IC50	inhibition at 1000 µM	reversibility of the inhibitory effect by washout	reduction of current amplitude in the presence of 3–10 µM diclofenac (3–10 µM diclofenac)	inhibition at 3 µM (read-out: % inhibition of 10 µM ATP-induced currents by 3 µM diclofenac, 3 µM diclofenac, 10 µM ATP, ± SEM)	inhibition at 30 µM (read-out: % inhibition of 10 µM ATP-induced currents by 30 µM diclofenac, 30 µM diclofenac, 10 µM ATP, ± SEM)
O=C(O)c1ccccc1Nc1cccc(C(F)(F)F)c1 [Flufenamic acid, flufenamic acid]	221 µM and 222 µM	69.8%	not reversible	–	–	–
O=C(O)Cc1ccccc1Nc1c(Cl)cccc1Cl [Diclofenac, diclofenac]	138 µM	~80%	not reversible	20%–30%	-1.6%	24%
